Results reported in US10080366B2, “Agent for increasing sugar content in fruit” (RIKEN, priority 2012, dated 2018).
Where two headings read alike, the source gives them in different places.

Key:
Pinot noir = assay: Acceptability of fruit for wine (Example 11); type: in vivo, grape; conditions: Example 1 sample
Description: As in the case where agriculture workers check whether or not a berry can be used for wine, the criteria of the acceptability were based the appearance (appearance associated with mold, rot, or the like, whether or not the fruit juice or fruit pulp was lost, and the like), taste (whether or not the berry was normal, when eaten, and the like), and odor (whether or not a foreign odor or the like was present). A berry having no problem in terms of any of the appearance, taste, and odor was determined to be acceptable, and a berry having any problem was determined to be not acceptable.

Celery = conditions: 10 g/L aqueous solution at intervals of one week; browning index 0-5, five plants
Description: (§1) In general, calcium deficiency in lettuce and celery occurs from summer to fall. Heart rot symptom develops in lettuce, and change in color and blackening of new leaves develop in celery. In addition, tipburn may also occur in lettuce. A 10 g/L aqueous potassium hydrogen carbonate solution was applied at intervals of one week to lettuce and celery in which no symptom of calcium deficiency had yet developed, and whether or not the symptom became milder than that of an untreated group was observed. Five plants were subjected to each treatment, and the degree of the symptom of calcium deficiency was determined on the basis of the degree of browning of leaves at the harvest.
(§2) 0: no browning, 0.5: browning occurred only in very small portions on the edges of leaves, 1.0: browning occurred in portions on the edges of […], 2.0: browning occurred from edges of leaves to the inside, 3.0: the degree of browning was considerable, 5.0: the browning of leaves was remarkable. Degree of occurrence=(Index 5×the number of plants in which the corresponding blowing occurred+Index 3×the number of plants in which the corresponding blowing occurred+Index 2×the number of plants in which the corresponding blowing occurred+Index 1×the number of plants in which the corresponding blowing occurred+Index 0.5×the number of plants in which the corresponding blowing occurred)/5 plants

Lettuce (Great Lakes) = conditions: 10 g/L aqueous solution at intervals of one week; browning index 0-5, five plants
Description: as §1, §2

[1] = test system: grapes (varieties: Chardonnay, Pinot noir, Merlot, and Cabernet Sauvignon); conditions: for sugar content in fruit compared with untreated: 3000 L/ha, entire vines, repeated, all four varieties
Procedure: To the entire vines including leaves and stems of grapes (varieties: Chardonnay, Pinot noir, Merlot, and Cabernet Sauvignon, 7 years old) in a farm field, an agent (containing Sorbon T-20 as a spreader/sticker at a concentration of 200 μL/L) for increasing a sugar content in a fruit diluted with water to have a potassium hydrogen carbonate concentration of 5 g/L or 10 g/L was applied in a sufficient amount (3000 L/ha (in this case, the amount of potassium hydrogen carbonate was 15 kg/ha for the 5 g/L sample or 30 kg/ha for the 10 g/L sample) each time. The application was repeatedly conducted at intervals of approximately 2 weeks or approximately 1 week as shown in FIGS. 1 to 4. The sugar concentration in the fruit was measured over time. As a control, unapplied vines were provided. The sampling was started before the first application, and a sample was collected before each application, and measured for the sugar content. Three vines were used for each treated group. Note that the expected harvest dates were September 20 for Chardonnay, October 10 for Merlot, October 20 for Cabernet Sauvignon, and September 30 for Pinot noir.
For the measurement of the sugar content, three clusters were taken from each of the treated vines on each of the dates of measurement, and the juice was squeezed and measured for the Brix sugar content (%) with a refractometer for sugar content (manufactured by Atago Co., Ltd.). Likewise, the acidity (%) was also measured with an acidity meter (manufactured by Atago Co., Ltd.).

Tomato = conditions: dilution ratio 100 (10 g/L); 6 days after treatment
[2] = test system: Grape (fruit: Cabernet Sauvignon); conditions: 10 g/L, three times at intervals of one week
Description: (§3) To each of the plants shown in Table 16 below, an aqueous potassium hydrogen carbonate solution (5 g/L for lettuce and 10 g/L for the other plants) was applied three times at intervals of one week from one month before the harvest. The plants were harvested three weeks after the start of the application. Untreated plants not treated with the aqueous potassium hydrogen carbonate solution were harvested at the same time. After the harvest, the total amount of amino acids in each sample was determined, and the ratio of the total amount of amino acids in the plant treated with potassium hydrogen carbonate to the total amount of amino acids in the untreated plant was determined.

[3] = test system: Rice plant (grains: Nipponbare); conditions: 10 g/L, three times at intervals of one week
Description: as §3

Tomato (fruit: Regina) = conditions: 10 g/L, three times at intervals of one week
Description: as §3

[4] = test system: fruit of grape (variety: Red Globe)
Procedure: An agent for increasing a sugar content in a fruit (containing Sorbon T-20 as a spreader/sticker at a final concentration of 200 μL/L) diluted with water to have a potassium hydrogen carbonate concentration of 10 g/L was prepared. The mass of fruit of grape (variety: Red Globe) purchased on the market was measured. Then, the prepared agent for increasing a sugar content in a fruit was applied by spraying to the fruit of grape. Then, the fruit of grape was allowed to stand in an air-conditioned greenhouse (temperature: 25° C.), and the mass was measured over time (date of application: Apr. 27, 2011; dates of test: May 2, 2011, May 6, 2011, May 9, 2011, May 11, 2011, May 13, 2011, and May 16, 2011). In addition, as a control, the mass of untreated grape was measured on each date of measurement in the same manner.
On the basis of the measured mass, the estimated amount (cumulative value) of transpiration and the estimated amount of transpiration per day were calculated. The results are shown in Tables 5 and 6 and FIGS. 10 and 11.
Note that the vertical axis in FIG. 10 represents the mass (g) of the fruit of grape on each of the dates of measurement per 100 g of the fruit of grape on the date of application, and the vertical axis in FIG. 11 represents the estimated amount (g) of transpiration on each of the dates of measurement per 100 g of the fruit of grape on the date of application. The estimated amount (g) of transpiration on each of the dates of measurement per 100 g of the fruit of grape on the date of application=(the mass (g) of the fruit of grape on the date of application−the mass (g) of the fruit of grape on the date of measurement)/the mass of the fruit of grape on the date of application×100

[5] = approximately 3 weeks later (19 days later)

O=C([O-])O.[K+] [Potassium hydrogen carbonate, potassium hydrogen carbonate]
Acceptable ratio (%) of fruit (Pinot noir; 5 g/L): 75%
Acceptable ratio (%) of fruit (Pinot noir; 10 g/L): 80%
Degree of occurrence of calcium deficiency (Celery): 0.3
Degree of occurrence of calcium deficiency (Lettuce (Great Lakes)): 0.2
acidity compared with untreated ([1]; 5 g/L or 10 g/L): kept equal to or slightly higher than that of the untreated group
sugar content in fruit compared with untreated ([1]; 5 g/L): greater increase in sugar content than the untreated fruit of grape
sugar content in fruit compared with untreated ([1]; 10 g/L): greater increase in sugar content than the untreated fruit of grape
Ratio (%) of decrease in body weight of fruit (Tomato): 14.8%
Amino acid concentration ratio (treated/untreated) [2]: 2.2
Amino acid concentration ratio (treated/untreated) [3]: 1.2
Amino acid concentration ratio (treated/untreated) (Tomato (fruit: Regina)): 1.8
Estimated amount (g) of transpiration per 100 g of fruit on date of application ([4]; 5 days later): 17.4 g
Mass (g) of fruit per 100 g of fruit on date of application ([4]; 5 days later (applied Apr. 27)): 82.6 g
Estimated amount (g) of transpiration per 100 g of fruit on date of application ([4]; 9 days later): 29.5 g
Mass (g) of fruit per 100 g of fruit on date of application ([4]; 9 days later): 70.5 g
Estimated amount (g) of transpiration per 100 g of fruit on date of application ([4]; 12 days later): 37.2 g
Mass (g) of fruit per 100 g of fruit on date of application ([4]; 12 days later): 62.8 g
Estimated amount (g) of transpiration per 100 g of fruit on date of application ([4]; 14 days later): 42.6 g
Mass (g) of fruit per 100 g of fruit on date of application ([4]; 14 days later): 57.4 g
Estimated amount (g) of transpiration per 100 g of fruit on date of application ([4]; 16 days later): 47.9 g
Mass (g) of fruit per 100 g of fruit on date of application ([4]; 16 days later): 52.1 g
Estimated amount (g) of transpiration per 100 g of fruit on date of application ([4]; 19 days later): 55.3 g
Mass (g) of fruit per 100 g of fruit on date of application ([4]; 19 days later): 44.7 g
mass as % of the mass on the date of application [4, 5]: 44.7%
ratio of transpiration of the fruit [4, 5]: 55.3%
